Laboratory results reported in paper PMC9545474, “Anticancer Water‐Soluble Organoruthenium Complexes: Synthesis and Preclinical Evaluation” (Chembiochem, 2022).

Experiments:
[1] = test system: A2780cisR subcutaneous tumour xenograft; assay: Efficacy in A2780cisR (A2780/cis) subcutaneous tumour xenograft model; format: in vivo, Female Balb/c immunodeficient nude mice; settings: 6 at 50 mg/kg, 8 at 15 mg/kg, i.p.; for Median time to RTV2 / Maximum % weight loss / Growth delay: A2780/cis xenograft, days 0–4; for Maximum % weight loss: day in brackets; for Growth delay: versus untreated
Procedure: (§1) Compounds: All compounds were provided in powdered form and stored in the −20 °C freezer. They were formulated just before use. […] The drugs were then administered within 10 minutes of initial dilution.
(§2) Animals: Female Balb/c immunodeficient nude mice aged 6–12 weeks were used (Envigo, Blackthorn, UK). Mice were kept in cages housed in isolation cabinets in an air‐conditioned room with regular alternating cycles of light and darkness. They received Teklad 2018 diet (Envigo, Blackthorn, UK) and water ad libitum. All animal procedures were carried out under a project licence issued by the UK Home Office and UK National Cancer Research Institute Guidelines for the Welfare of Animals were followed throughout.
S.c. xenograft tumours: A2780/WT and A2780/cis tumours were excised from a donor animal, placed in sterile physiological saline containing antibiotics and cut into small fragments of approximately 5 mm^3. Under brief general inhalation anaesthesia, fragments were implanted in the flank of each mouse using a trocar. Once the tumours could accurately be measured by callipers, the mice were allocated into groups (control or treated) by restricted randomisation to keep group mean tumour size variation to a minimum, with 3 animals set up per group.
Evaluation of efficacy in s.c. xenograft models: The compounds were prepared fresh on the days of treatment as described above and administered i. p. to mice on days 0–4 in a volume of 0.1 mL per 10 g of body weight. […] The negative control group was untreated.
The effects of therapy were assessed by frequent monitoring growth of the tumours and body weight. Two‐dimensional calliper measurements of the tumours were taken, and volumes calculated using the formula (a^2×b)/2, where a is the smaller and b the larger diameter of the tumour. Tumour volume was then normalised to the respective volume on day 0, and semi‐log plots of relative tumour volume (RTV) versus time were made. Mann‐Whitney U tests were performed to determine the statistical significance of any differences in growth rate (based on tumour volume doubling time, RTV2) between control and treated groups.

[2] = Reactivity with NAC by NMR; format: physicochemical; settings: NMR studies over 24 hours
[3] = test system: A2780 cells; assay: Cell viability with N-acetylcysteine (MTT), A2780; format: cell-based, human; settings: A2780, NAC 5 mM 30 min before complexes at IC50
Procedure: Cell viability with N ‐acetylcysteine: Cells were seeded in 96‐well plates at a concentration of 7.5×10^3 cells per well and the plates were incubated for 24 h at 37 °C and a 5 % CO2 humidified atmosphere prior to drug exposure. Complexes were dissolved in either DMSO or PBS to provide stock solutions which were further diluted with media to provide a range of final concentrations. Solution of N‐acetylcysteine (NAC) in media was also prepared. […] Cells were incubated for 24 h at 37 °C and a 5 % CO2 humidified atmosphere. 3‐(4,5‐dimethylthiazol‐2‐yl)‐2,5‐diphenyltetrazolium bromide (MTT) (20 μL, 2.5 mg/mL) was added to each well and plates were incubated for 2 h. All solutions were then removed and 100 μL of DMSO was added to each well in order to dissolve the purple formazan crystals. A Thermo Scientific Multiskan EX microplate photometer was used to measure the absorbance in each well at 570 nm. Cell survival was determined as the absorbance of treated cells divided by the absorbance of controls and expressed as a percentage.

[4] = mice
Procedure: as §1, §2
(1 picture or pasted object on this page, not shown here)

For “(η^6‐p‐cymene)(TPPTS)Ru(Mnt) [Complex 6]”, the “Median time to RTV2” value [1] was 3.0 days, the “Maximum % weight loss” value [1] was 2% and the Growth delay [1] was 0.2 days. The “Reaction with NAC” value [2] was “do not react together” and the “Cell viability after pre-treatment with NAC” value [3] was “increase of the cell viability”.

In the case of Cc1ccc(C(C)C)cc1.N#CC1=C(C#N)[S][Ru-]([P+](c2ccccc2)(c2ccccc2)c2ccccc2)[S]1 [Complex 8, (η^6‐p‐cymene)(PPh3)Ru(Mnt)], the “Median time to RTV2” value [1] is reported as 10.0 days, the “Maximum % weight loss” value [1] is reported as 2% and the Growth delay [1] is reported as 7.2 days. For the same molecule, the “Toxicity in xenograft study” value ([1]; A2780cisR xenograft) was “No toxicity was observed”, the “maximum tolerated dose (MTD)” value ([4]; i.p. daily, monitored for a further two weeks) was 15 mg/kg and the “Toxicity in MTD run” value ([4]; i.p., 15mg/kg in 20 % DMSO/arachis oil, full run) was “no evidence of toxicity was seen”. For the same molecule, the “Cell viability after pre-treatment with NAC” value [3] was “increase of the cell viability”.
